The record followed here is patent US12065438B2, “Substituted tricyclic compounds as indoleamine 2,3-dioxygenase inhibitors” (Merck Sharp & Dohme LLC, priority 2019, dated 2024).

For test [1], the target named is T1, IDO1 (Homo sapiens, UniProt P14902). As to the kind of experiment: IDO1 Cellular Assay in HeLa Cells Stimulated with IFNγ. Format: cell-based. Set-up: endogenous in cells; host or cells: HeLa cells stimulated with IFNγ. As to conditions: HeLa cells stimulated with IFNγ 100 ng/mL, 300 uM L-tryptophan, about 48 hours, fluorescence readout; read-out: IDO1 HELA Cell Assay, IC50. The procedure:
Biological Assays IDO1 Cellular Assay in HeLa Cells Stimulated with IFNγ HeLa cells were cultured in complete HeLa culture medium (90% EMEM, 10% heat-inactivated fetal bovine serum) and expanded to about 1×10^9 cells. The cells were then collected and frozen down at 1×10^7 cells/vial in 1 mL frozen medium (90% complete HeLa culture medium, 10% DMSO). Compounds to be tested were serially diluted in ten 3-fold steps in DMSO starting from 10 mM DMSO stocks in Echo low volume plate(s). Compound dilutions or DMSO alone were then dispensed from the dilution plate(s) into Greiner black 384-well assay plate(s) (catalog #781086, 50 nL/well) using an Echo 550 acoustic liquid handler (Labcyte). Frozen HeLa cells were thawed and transferred into HeLa assay medium (99% complete HeLa culture medium, 1% Pen/Strep) with 20 mL medium/vial of cells. The cells were spun down at 250 g in a table top centrifuge for 5 min and suspended in same volume of HeLa assay medium. The cells were then counted and adjusted to a density of 2×10^5 cells/mL in HeLa assay medium. Sterile L-tryptophan were added to the cells with final concentration of 300 uM L-tryptophan. A small aliquot (2 mL/plate) of HeLa cells were set aside and were not treated with IFNγ, to serve as the Max-E control. The rest of HeLa cells were added with sterile IFNγ (Cat #285-IF, R & D systems) with a final concentration of 100 ng/mL. HeLa cells with and without IFNγ were dispensed to the respective wells of 384-well assay plates containing the compounds. The plates were incubated for about 48 hours at a 37° C., 5% CO2 incubator. Afterwards, 12 μL of 0.5 M methyl isonipecotate in dimethyl sulfoxide were added into each well and the plates were sealed and incubated at 37° C. without CO2 overnight. The plates were centrifuged for 1 min at 200×g. The resulting fluorescence was measured in a Spectramax plate reader (Molecular Devices) with a 400 nm excitation filter and a 510 nm emission filter. The fluorescence intensity of each well was corrected for the background observed in wells with non-IFNγ-treated cells and was expressed as a fraction of the intensity observed in wells of IFNγ-treated cells and DMSO only. Potencies were calculated by […] least squares fit to the four parameter logistic IC50 equation.

Test [2] addresses T1, IDO1. Put plainly: IDO1 Human Whole Blood Assay. As to conditions: LPS and IFNγ 100 ng/mL, overnight (18 h), kynurenine by LC/MS/MS. The class given is cell-based. The procedure: IDO1 Human Whole Blood Assay
Compounds to be tested were serially diluted in ten 3-fold steps in DMSO starting from 10 mM. 3 μL of compound dilutions or DMSO alone were then dispensed from the dilution plate into a polypropylene 96-well assay plate containing 97 μL of RPMI medium using an Echo 555 acoustic liquid handler (Labcyte). LPS and IFNγ was prepared in RPMI medium to a 10× of final conc. (1000 ng/mL), final concentration is 100 ng/mL.
240 μL of blood was transferred to each of the wells of a v-bottom 96 well plate. 30 μL of compound was transferred from intermediate dilution plate, and incubated for 15 min. 30 μL from stimulants was then transferred to blood and mixed thoroughly. Plate was covered with breathable membrane and incubated at 37° C. for overnight (18 h).
On day 2, isotope labeled standard solutions of kynurenine and tryptophan was made in water at 10× concentration and 30 μL was added to the blood at 3 μM final concentration. The assay plates were centrifuged at 300×G for 10 min with no brake to separate plasma from red blood cells. 60 μL of plasma samples was removed without disturbing red blood cells. Plasma was diluted with RPMI in 1:1 ratio and proteins were precipitated out with two volumes of Acetonitrile. The plates were centrifuged at 4000×G for 60 min. 20 μL of supernatant was carefully transferred to a 384 well plate containing 40 μL of 0.1% formic acid in water and analyzed by LC/MS/MS.
LC/MS/MS analyses were performed using Thermo Fisher's LX4-TSQ Quantum Ultra system. This system consists of four Agilent binary high-performance liquid chromatography (HPLC) pumps and a TSQ Quantum Ultra triple quadrupole MS/MS instrument. For each sample, 5 μL were injected onto an Atlantis T3 column (2.1 mm×150 mm, 3 μm particle size) from Waters. The mobile phase gradient pumped at 0.8 mL/min was used to elute the analytes from the column at 25° C. The elution started at 0% B increasing linearly to 25% B at 6.5 min, holding at 25% for 1 min, re-equilibrating to 10 min. Mobile phase A consisted of 0.1% formic acid in water. Mobile phase B consisted of 0.1% of formic acid in acetonitrile. Data were acquired in positive mode using a HESI interface. The operational parameters for the TSQ Quantum Ultra instrument were a spray voltage of 4000 V, capillary temperature of 380° C., vaporizer temperature 400° C., shealth gas 60 arbitrary units, Aux gas 20 arbitrary units, tube lens 85 and collision gas 1.2 mTorr. SRM chromatograms of kynurenine (Q1: 209.2>Q3:94.0) and internal standard (Q1: 215.3>Q3:98.2) were collected for 90 sec. The peak area was integrated by Xcalibur Quan software. The ratios between the kynurenine generated in the reaction and 2D6-Kynurenine spiked-in internal standard were used to generate percentage inhibition and IC50 values. Compounds were titrated and IC50's were calculated by 4 parameter sigmoidal curve fitting formula.

T1 sequence (P14902 whole entry): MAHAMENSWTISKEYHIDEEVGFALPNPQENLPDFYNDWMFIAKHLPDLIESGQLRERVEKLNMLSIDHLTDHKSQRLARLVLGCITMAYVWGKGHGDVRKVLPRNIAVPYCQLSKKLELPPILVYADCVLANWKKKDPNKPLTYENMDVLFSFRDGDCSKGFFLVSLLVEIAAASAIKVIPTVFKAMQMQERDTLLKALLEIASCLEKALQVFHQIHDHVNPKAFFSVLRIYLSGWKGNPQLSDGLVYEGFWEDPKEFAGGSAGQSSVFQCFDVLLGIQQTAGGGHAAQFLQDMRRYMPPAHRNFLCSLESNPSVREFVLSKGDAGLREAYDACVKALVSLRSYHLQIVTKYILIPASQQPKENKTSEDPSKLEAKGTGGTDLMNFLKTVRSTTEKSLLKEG

`O=C(C1CC1)N1CC2CC2c2cc(C3(C(=O)Nc4ccc(F)cc4)CCC3)ccc21` (single isomer, unassigned) [Example 4, 1-(3-(cyclopropanecarbonyl)-1a,2,3,7b-tetrahydro-1H-cyclopropa[c]quinolin-6-yl)-N-(4-fluorophenyl)cyclobutanecarboxamide]: the IC50 (in general, the midpoint of a concentration-inhibition curve) on IDO1 [1] was determined as 0.00292 µM; on IDO1 [2] it was 0.037 µM.
`CC(C)(NC(=O)c1ccc(F)cc1)c1ccc2c(n1)[C@@H]1C[C@@H]1CN2C(=O)OC1CC1` (single isomer, unassigned) [Example 33]: the IC50 at IDO1 [1] worked out at 0.00405 µM; on IDO1 [2], 0.465 µM.
Regarding `CC(C)(NC(=O)c1ccc(F)cc1)c1ccc2c(n1)C1CC1CN2C(=O)C(F)(F)F` (stereo not drawn) [Example 35, 2-(2-(4-fluorobenzamido)propan-2-yl)-5-(2,2,2-trifluoroacetyl)-6,6a,7,7a-tetrahydro-5H-cyclopropa[c][1,5]naphthyridin-1-ium], the 50% inhibitory concentration (IC50) was 1.3 µM on IDO1 [1] and 0.778 µM on IDO1 [2].
Take `O=C(NC1(c2ccc3c(n2)C2CC2CN3c2ccnc(CO)n2)CC1)c1ccc(F)cc1` (stereo not drawn) [Example 19, 4-fluoro-N-(1-(5-(2-(hydroxymethyl)pyrimidin-4-yl)-6,6a,7,7a-tetrahydro-5H-cyclopropa[c][1,5]naphthyridin-2-yl)cyclopropyl)benzamide]: the IC50 stood at 0.011 µM at IDO1 [1] and 0.151 µM at IDO1 [2].
As to `CCC(NC(=O)c1ccc(F)cc1)c1ccc2c(n1)C1CC1CN2C(=O)OC1CC1` (single isomer, unassigned) [Example 37, cyclopropyl 2-(1-(4-fluorobenzamido)propyl)-6,6a,7,7a-tetrahydro-5H-cyclopropa[c][1,5]naphthyridine-5-carboxylate], the IC50 on IDO1 [1] came out at 0.00283 µM; against IDO1 [2], 0.054 µM.
As for “4-fluoro-N-(2-((6aS,7aR)-5-(2-methylpyrimidin-4-yl)-6,6a,7,7a-tetrahydro-5H-cyclopropa[c][1,5]naphthyridin-2-yl)propan-2-yl)benzamide [Example 30]”, the IC50 on IDO1 [1] is 0.0066 µM; against IDO1 [2] it was 0.126 µM.
As to `CCc1nccc(N2CC3CC3c3nc(C4(NC(=O)c5ccc(F)cc5)CC4)ccc32)n1` (stereo not drawn) [Example 14, N-(1-(5-(2-ethylpyrimidin-4-yl)-6,6a,7,7a-tetrahydro-5H-cyclopropa[c][1,5]-naphthyridin-2-yl)cyclo-propyl)-4-fluorobenzamide], the IC50 at IDO1 [1] turned out to be 0.0035 µM; on IDO1 [2] it was 0.105 µM.
`CC(C)(NC(=O)c1ccc(F)cc1)c1ccc2c(n1)C1CC1CN2C(=O)OC1CC1` (single isomer, unassigned) [Example 32, cyclopropyl 2-(2-(4-fluorobenzamido)propan-2-yl)-6,6a,7,7a-tetrahydro-5H-cyclopropa[c][1,5]naphthyridine-5-carboxylate]: the IC50 on IDO1 [1] is 0.00756 µM; at IDO1 [2], 0.778 µM.
In the case of `C[C@@H](NC(=O)c1ccc(F)cc1)c1ccc2c(n1)[C@@H]1C[C@@H]1CN2C(=O)OC1CC1` [Example 27, cyclopropyl (6aS,7aR)-2-((R)-1-(4-fluorobenzamido)-ethyl)-6,6a,7,7a-tetrahydro-5H-cyclopropa[c][1,5]-naphthyridine-5-carboxylate], the IC50 at IDO1 [1] was 0.00323 µM; against IDO1 [2] it was 0.463 µM.
